Test results taken from patent publication US20200163885A1, “COMPOSITION FOR DELIVERING PHYSIOLOGICALLY ACTIVE INGREDIENTS INTO BLOOD VESSEL” (LEMONEX INC., priority 2017, published 2020).

Key:
[1] = Release of bioactive materials from loaded porous silica particles; assay type: physicochemical; details: doxorubicin loaded on porous silica particles, SBF (pH 7.4), 37° C.
Protocol: 5 mg of porous silica particles loaded with doxorubicin ([…]) was dispersed in SBF (pH 7.4) (total volume: 1 ml), and then the solution was placed in a 1.5 ml tube and maintained in a dynamic condition of performing horizontal agitation at 20 rpm and 37° C. At each time point, the porous silica solution loaded with doxorubicin was settled using a centrifuge, and the absorbance (λa,b=480 nm) of the supernatant was measured to determine an amount of released doxorubicin.
10 mg of porous silica particles loaded with doxorubicin (2 mg) were dispersed in SBF (pH 7.4) inside a dialysis membrane (total volume: 0.5 ml), and then the dialysis membrane was placed in a 1.5 ml SBF tube (pH 7.4) and maintained in static conditions at 37° C. At each time point, the porous silica solution loaded with doxorubicin was settled using a centrifuge, and the absorbance (λab=480 nm) of the supernatant was measured to determine an amount of released doxorubicin.
The solution was maintained in a dynamic condition of performing horizontal agitation at 200 rpm and 37° C.
[…] of porous silica particles loaded with sorafenib (0.1 Mg) were dispersed in 10 ml of 1×PBS. The solution was maintained under a dynamic condition of performing horizontal agitation at 200 rpm and 37° C. At each time point, the porous silica solution loaded with sorafenib was settled using a centrifuge, and the absorbance (λab=270 nm) of the supernatant was measured to determine an amount of released sorafenib.
0.1 mg of particles loaded with retinoic acid were placed in a PBS (pH 7.4) solution containing 5% ethanol and maintained at 37° C. while performing horizontal agitation.
5 mg of particles loaded with p53 peptide were placed in 5 ml of 1×PBS containing 10% FBS or 5 ml of 1×PBS, and maintained under a dynamic environment while rotating at 20 rpm and 37° C. At each time point, centrifugation was conducted at 8500 rpm and a fluorescence intensity of 5(6)-carboxyfluorescein (FAM), which is a fluorescent label bound to p53 peptide from the supernatant ([…]: 480 nm, Emission: 520 nm).
10 μl of porous silica particles loaded with Cy5-siRNA was resuspended in SBF (pH 7.4, 37° C.) (total volume: 0.5 ml) and placed in a 1.5 ml tube. Release of siRNA was performed while horizontally agitating at 60 rpm and 37° C. At each time point, the siRNA-loaded porous silica solution was settled using a centrifuge, and a fluorescence intensity of the supernatant was measured.
20 μg of porous silica particles loaded with siRNA (1 μg) of the above 1) was dispersed in SBF (pH 7.4) inside a dialysis membrane (total volume: 0.5 ml), and the dialysis membrane was placed in a 1.5 ml SBF (pH 7.4) tube, and static conditions at 37° C. were maintained. At each time point, the siRNA-loaded porous silica solution was settled using a centrifuge, and the absorbance (λab=480 nm) of the supernatant was measured to determine an amount of released siRNA.
20 μg of porous silica particles loaded with pDNA (1 μg) were dispersed in SBF (pH 7.4) inside a dialysis membrane (total volume 0.5 ml), and the dialysis membrane was placed in a 1.5 ml SBF (pH 7.4) tube while shaking at 60 rpm and 37° C. At each time point, the porous silica solution loaded with pDNA was settled using a centrifuge and the absorbance (λab=480 nm) of the supernatant was measured to determine an amount of released pDNA.
Porous silica particles loaded with linear DNA (3 μg of linear DNA, 100 μg of porous silica particles) were resuspended in PBS (pH 7.4, 37° C.), and a dialysis membrane having a pore diameter of 20 kDa (the same tube as the tube in FIG. 18). After placing the suspension in the membrane, a dialysis tube was soaked in 1.5 ml of PBS.

HepG2 cells = test: Delivery through intravenous injection, HepG2 Xeno; assay type: in vivo, Balb/C nude mouse; details: loaded on particles of Example 2-(3)-4)-(i), tail vein, 4 mg/kg
Protocol: Xeno was prepared in Balb/C nude mouse using HepG2 cells as a human liver cancer cell line. […] An injecting dose of doxorubicin was 4 mg/kg (mouse weight), and 80 μg of doxorubicin and 160 μg of particles were used based on an average body weight of 20 g of 5 to 8-week old Balb/C nude mouse.

[2] = Bioactive material loading capacity of porous silica particles; assay type: physicochemical; details: particles of Example 2-(3)-4)-(i), distilled water, 1 hour
Protocol: After loading the negatively charged porous silica particles of Example 2-(3)-4)-(i) with doxorubicin, the absorbance of the supernatant was measured to determine an amount of loaded doxorubicin, and a loading rate (“loading capacity”) of the particles was calculated.
Specifically, 5 mg of porous silica particle powders and 2 mg of doxorubicin were mixed in 1 ml of distilled water, and then settled at room temperature for 1 hour. Subsequently, the solution was centrifuged at 8000 rpm for 10 minutes to settle the particles, and absorbance (λab=480 nm) of the supernatant was measured to determine an amount of the low molecular weight compound remaining in the supernatant without loading. Further, an amount of the loaded low molecular weight compound was calculated (an amount of the loaded low molecular weight compound=an amount of initially added low molecular weight compound−an amount of the low molecular weight compound remaining in the supernatant) so as to determine the loading capacity (loading capacity=bioactive material/porous silica particles, w/w %)
After loading the negatively charged porous silica particles in Example 2-(3)-4)-(i) with irinotecan, absorbance of the supernatant was measured and an amount of loaded irinotecan was calculated, and the loading capacity thereof was determined. […]

[3] = static condition, dialysis membrane

- time to reach a release rate of 50% ([1]; dynamic condition, 20 rpm): about 1.5 hours
- time up to which continuously released ([1]; dynamic condition, 20 rpm): ≥ 12 h
- time to reach a release rate of 50% [1, 3]: about 6 days
- time up to which continuously released [1, 3]: ≥ 480 h
- loading of doxorubicin on the particles (colour of solution after centrifugation) [2]: mostly loaded on the particles
Compound: COc1cccc2c1C(=O)c1c(O)c3c(c(O)c1C2=O)C[C@@](O)(C(=O)CO)C[C@@H]3O[C@H]1C[C@H](N)[C@H](O)[C@H](C)O1 [doxorubicin]
- tumor growth inhibition compared to injection of the material alone (HepG2 cells): excellent
